Tested on: Lactobacillus paracasei viro-01
Experiment: Antibiotic sensitivity test (disc)
Format: cell-based
Settings: for growth-inhibition zone: Mueller Hinton agar, 37° C., 16 hours; for resistance of Lactobacillus paracasei viro-01 to the antibiotic: judged by the zone limits printed per antibiotic (resistant/moderate/sensitive)
Description: Antibiotic sensitivity of the Lactobacillus paracasei viro-01 of the present invention were tested. The antibiotic resistance test was carried out by Scientec Lab Center Co., Ltd.(Daejeon city, Daedeok, Korea) approved by the KFDA.
Antibiotics used were Cephalexin, Flumequine, Furazolidone, Gentamycin, Spectinomycin, Tetracycline, Tiamulin, Neomycin, Chloramphenicol and Kanamycin, and test procedures were as described below.
5 to 6 colonies of cultured Lactobacillus paracasei viro-01 were selected, inoculated into bacterial growth medium composed of peptone 10.0 g/L, beef extract 10.0 g/L, yeast extract 5.0 g/L, glucose 20.0 g/L, Tween 80 1.0 mL/L, K2HPO4 2.0 g/L, sodium acetate 5.0 g/L, triammonium citrate 2.0 g/L, MgSO4.7H2O 0.2 g/L and MnSO4.4H2O 0.2 g/L and incubated at 37° C. Turbidity of said culture was adjusted to MacFarland No. 0.5, and used as test bacteria solution. Said test bacteria solution was smeared on Mueller Hinton agar plates and antibiotic sensitivity test disc was added thereto and incubated at 37° C. for 16 hours.
Antibiotic sensitivity was determined by measuring the area of growth inhibition surrounding each test disc.

Row | Molecule | growth-inhibition zone (content 10 μg/disc) [mm] | resistance of Lactobacillus paracasei viro-01 to the antibiotic (content 10 μg/disc) | further results
1 | O=C(N[C@H](CO)[C@H](O)c1ccc([N+](=O)[O-])cc1)C(Cl)Cl [chloramphenicol, Chloramphenicol] |  |  | growth-inhibition zone (content 30 μg/disc): 30 mm; resistance of Lactobacillus paracasei viro-01 to the antibiotic (content 30 μg/disc): none; resistance of Lactobacillus paracasei viro-01 to the antibiotic (content 30 μg/disc, listed as Chloramphenicol): no resistance
2 | CC1CCc2cc(F)cc3c(=O)c(C(=O)O)cn1c23 (centres unmarked) [flumequine, Flumequine] | 0 | strong | resistance of Lactobacillus paracasei viro-01 to the antibiotic (content 10 μg/disc, listed as Flumequine): resistance
3 | O=C1OCCN1/N=C/c1ccc([N+](=O)[O-])o1 [furazolidone, Furazolidone] | 0 | strong | resistance of Lactobacillus paracasei viro-01 to the antibiotic (content 10 μg/disc, listed as Furazolidone): resistance
4 | NC[C@H]1O[C@H](O[C@H]2[C@H](O)[C@@H](O[C@H]3O[C@H](CO)[C@@H](O)[C@H](N)[C@H]3O)[C@H](N)C[C@@H]2N)[C@H](O)[C@@H](O)[C@@H]1O [kanamycin, Kanamycin] | 9 |  | 
5 | CC1=C(C(=O)O)N2C(=O)[C@@H](NC(=O)[C@H](N)c3ccccc3)[C@H]2SC1 [sephalexin, Cephalexin] | 0 | strong | resistance of Lactobacillus paracasei viro-01 to the antibiotic (content 10 μg/disc, listed as Cephalexin): resistance
6 | CN[C@@H]1[C@H](O)[C@H](NC)[C@H]2O[C@@]3(O)C(=O)C[C@@H](C)O[C@H]3O[C@@H]2[C@H]1O [spectinomycin, Spectinomycin] | 0 | strong | resistance of Lactobacillus paracasei viro-01 to the antibiotic (content 10 μg/disc, listed as Spectinomycin): resistance
7 | CN(C)[C@@H]1C(O)=C(C(N)=O)C(=O)[C@@]2(O)C(O)=C3C(=O)c4c(O)cccc4[C@@](C)(O)[C@H]3C[C@@H]12 [tetracycline, Tetracycline] |  |  | growth-inhibition zone (content 30 μg/disc): 30 mm
8 | C=C[C@]1(C)C[C@@H](OC(=O)CSCCN(CC)CC)[C@]2(C)[C@H](C)CC[C@]3(CCC(=O)[C@H]32)[C@@H](C)[C@@H]1O [tiamulin, Tiamulin] | 28 | none | resistance of Lactobacillus paracasei viro-01 to the antibiotic (content 10 μg/disc, listed as Tiamulin): no resistance
9 | Gentamycin | 13 | moderate | resistance of Lactobacillus paracasei viro-01 to the antibiotic (content 10 μg/disc, listed as Gentamycin): moderate resistance
10 | Neomycin | 13 | moderate | resistance of Lactobacillus paracasei viro-01 to the antibiotic (content 10 μg/disc, listed as Neomycin): moderate resistance
